Series [1] concerns KB cells. The series can be described thus: Inhibition of cell growth (XTT assay / total cell protein). The series is classed as cell-based, human. The procedure:
Cell culture and treatment.
Evaluation of dendrimer cytotoxicity. Cell growth was determined by assay of the total protein in lysates of treated cells using a bicinchoninic acid reagent (PIERCE, and by XTT assay, using a kit from Roche.
Because the binding of the conjugate to KB cells reaches maximal uptake within 1 h (Quintana et al, 2002. Pharmaceutical Research 19: 1310-1316.), the effect of the G5-FI-FA-MTX on cell growth was initially tested by pre-incubation of cells with the conjugate for 1 h, followed by incubation in a drug-free medium for 5 d. […] When the cells were pre-incubated with dendrimers for 4 h, there was a modest decrease of about 10% in cell growth as determined by XTT assay. The cytotoxicity measurements were therefore done by incubation with the dendrimer for a minimum of 24 h, a pre-incubation time period shown to induce significant cytotoxicity.
Time course and dose dependent inhibition of cell growth. Previous studies have shown that MTX-induced cytotoxicity is detectable in vitro only if the medium is completely deprived of FA (See, e.g., Sobrero & Bertino, Int. J. Cell Cloning 4, 51 (1986)). The effect of the trifunctional dendrimers on cell growth was tested in cells incubated in a FA-deficient medium. Cells were treated with 300 nM conjugates (equivalent of 1500 nM MTX) or 1500 nM free MTX for 1-4 days, and cell proliferation was determined by estimation of cellular protein content. Cells were treated for 2 days with different concentrations of the conjugates or free MTX (the conjugate concentration is given as MTX equivalents, with 5 MTX per dendrimer molecule). KB cells which express high and low FAR were incubated with 30 nM of the dendrimers for 1 hr at 37° C., rinsed, and the fluorescence of cells was determined by flow cytometric analysis (See. e.g., FIG. 21, left panel). Pre-incubation with 50 µM free FA for 30 min totally prevents cellular binding and uptake of the polymer conjugates (See. e.g., FIG. 21, left panel).
The inhibition of cell growth induced by the conjugates was also tested by XTT assay which is based on the conversion of XTT to formazan by the active mitochondria of live cells (See, e.g., Roehm et al, J Immunol Methods 142, 257 (1991)).

Series [2] has as its system s.c. human KB xenografts. Put plainly: Targeted drug delivery: tumor growth and survival. Format: in vivo, SCID mice. Conditions: for effect on tumor growth: first trial. The procedure: Tumor cell line. The KB human cell line, which overexpresses the folate receptor (See, e.g., Turek et al, J Cell Sci 106, 423 (1993)), was purchased from the American Type Tissue Collection (Manassas, Va.) and maintained in vitro at 37° C., 5% CO2 in folate-deficient RPMI 1640 supplemented with penicillin (100 units/mL), streptomycin (100 μg/mL), and 10% heat-inactivated fetal bovine serum. Before injection in the mice, the cells were harvested with trypsin-EDTA solution, washed, and resuspended in PBS. The cell suspension (5×10^6 cells in 0.2 mL) was injected s.c. into one flank of each mouse using a 30-gauge needle. In the biodistribution studies, the tumors were allowed to grow for 2 weeks until reaching ˜0.9 cm^3 in volume. The formula chosen to compute tumor volume was for a standard volume of an ellipsoid, where V=4/3π(½ length×½ width×½ depth). With an assumption that width equals depth and […], the formula used was V=½×length×width^2. Targeted drug delivery using conjugate injections was started on the fourth day after implantation of the KB cells.
Delivery of targeted nanoparticle therapeutic.
Statistical methods. Means, SD, and SE of the data were calculated. Differences between the experimental groups and the control groups were tested using Student's-Newman-Keuls' test and Ps<0.05 were considered significant.
Targeted drug delivery to tumor cells through the folate receptor. The efficacy of different doses of conjugates was tested on SCID CB-17 mice bearing s.c. human KB xenografts and was compared with equivalent and higher doses of free methotrexate. Mice were maintained on the folic acid-deficient diet for 3 weeks before injection of the KB tumor cells to achieve circulating levels of folic acid that approach those in human serum and to prevent down-regulation of folate receptors on tumor xenografts (See, Mathias et al., J Nucl Med 29, 1579 (1998)). Six groups of SCID mice with five mice in each group were injected s.c. on one flank with 5×10^6 KB cells in 0.2 mL PBS suspension. The highest total dose of G5-FI-FA-MTX therapeutic used equals 55.0 mg/kg and is equivalent to a 5.0 mg/kg total cumulative dose of free methotrexate (FIG. 29). The therapeutic dose of the conjugate was compared with three cumulative doses of free methotrexate equivalent to 33.3, 21.7, and 5.0 mg/kg accumulated in 10 to 15 injections based on mouse survival. Saline and the conjugate without methotrexate (G5-FT-FA) were used as controls.

Series [3] relates to SCC15 cells. The series can be described thus: XTT cell proliferation assay. The series is classed as cell-based, human. The following applies: methotrexate 100 nM, G5-FI-EGF 100 nM, 3 days. The procedure:
XTT assay. For cytotoxicity experiments, cells (2500 cells/well) were seeded in 96-well microtiter plates in DMEM containing 10% FCS. The cells were treated either with 100 nM each of the conjugates for 72 h. A calorimetric XTT assay, Roche Molecular Biochemicals (Indianapolis, Ind.) was performed following the vendor's protocol. After incubation with an XTT labeling mixture, microtiter plates were read on an ELISA reader (SYNERGY HT, BIOTEK) at 492 nm with the reference wavelength at 690 nm. Vehicle-treated cells were assigned a value of 100%.

The conditions of series [4]: mouse, in vivo.
Protocol: (§1) Twice weekly, SCID mice with s.c. KB xenografts, starting on day 4 after tumor implantation, received via the tail vein an injection of either targeted or nontargeted conjugate containing methotrexate, a conjugate without methotrexate, free methotrexate, or saline as a control. The compounds were delivered in a 0.2 mL volume of saline per 20 g of mouse. The single dose of methotrexate delivered each time equaled 0.33 mg/kg. The higher doses of 1.67 and 3.33 mg/kg free methotrexate were also tested. The conjugates were delivered at equimolar concentration of methotrexate calculated based on the number of methotrexate molecules present in a nanoparticle. The conjugate without methotrexate was delivered at equimolar concentration of dendrimer. In the initial trial, six groups of mice with five mice in each group received up to 15 injections. In the follow-up trial, mice received up to 28 injections dependent on their survival. The body weights of the mice were monitored throughout the experiment as an indication of adverse effects of the drug. Histopathology of multiple organs was done at the termination of each trial and each time mouse had to be euthanized due to toxic effects or tumor burden. Tissues from lung, heart, liver, pancreas, spleen, kidney, and tumor were analyzed.
(§2) At each time point, a gross examination and histopathology of the liver, spleen, kidney, lung, and heart were done.
The nature of series [5]: Toxicity of dendrimer conjugates and free methotrexate (body weight, histopathology).
Protocol: as §1, §2

Structures are written as SMILES. Some results are limits rather than exact numbers.

As to `Nc1nc2ncc(CNc3ccc(C(=O)N[C@@H](CCC(=O)O)C(=O)O)cc3)nc2c(=O)[nH]1` [FA, folic acid], the “reversal by free FA of growth-arrest caused by MTX” value in series [1] (150 nM FA, 150 nM MTX, 24 h then 6 d fresh medium, total cell protein) was “almost completely reversed”. Further, the “increase of cell growth above control cells by excess free FA” value in series [1] (50 μM FA with MTX or G5-FITC-FA-MTX 24 h, then 5 days, XTT) amounted to 20%.

In the case of `CN(Cc1cnc2nc(N)nc(N)c2n1)c1ccc(C(=O)N[C@@H](CCC(=O)O)C(=O)O)cc1` [MTX, methotrexate], the “inhibition of cell growth” value in series [1] (XTT assay, 1, 2 or 3 days) is “time-dependent cytotoxicity”. In addition, the “growth inhibition of free MTX compared with conjugate” value in series [1] (equimolar MTX, below 1 μM) is reported as “higher than with the equimolar concentrations of MTX in the G5-FITC-FA-MTX”. The “effect on tumor growth” value in series [2] (cumulative 33.3 and 21.7 mg/kg) is “affecting tumor growth”. In series [2] (dose equivalent to 5.0 mg/kg cumulative methotrexate (or equimolar dendrimer)), the “effect on tumor growth” value is listed as “no effect on tumor growth”. In series [2] (second 99-day trial), the “day of trial by which all mice died” value is ≤ 66 days and the “survivors at the termination of the trial” value is listed as “no mice surviving”. Besides, in series [3], the “inhibition of cell growth in G5-FI-EGF-treated cells” value was “inhibited cell growth in the G5-FI-EGF-treated cells to a greater extent than its inhibition of control cells”. The “histopathology of the liver” value in series [4] is “advanced liver lesions, collections of inflammatory cells, and periportal inflammation”. Also, the “day of trial by which doses became lethal” value in series [5] (cumulative doses 33.3 and 21.7 mg/kg) is 32 to 36 days. In series [5] (total accumulated dose equivalent to 5.0 mg/kg free methotrexate), the toxicity result is on record as “nor free methotrexate at the same dose were toxic”.
